Laboratory results taken from patent publication US20250129027A1 (APOGEE PHARMACEUTICALS, INC., priority 2023, published 2025).
Where two headings read alike, the source gives them in different places.

How the values were obtained:
[1] = Plasma stability (LC-MS/MS, % parent compound remaining, half-life); assay type: in vitro ADME; details: human plasma; for half-life at 1 μM: 37° C., 0-240 mins, read-out: Human Plasma Stability (t1/2, min)
Description: Exemplary compounds described herewith were assayed for plasma stability (various species).
Plasma was removed from deep freezer and allowed to thaw at room temperature (or at 37° C. if needed). Plasma was then centrifuged at 4,000 rpm at RT for 10 min and supernatant was collected and used for the assay: • Drug test tubes: 297 μL plasma/drug test tube, duplicate/drug. • Blank test tubes: 297 μL plasma/Blank test tube, duplicate, too. (Optional, if assay system is stable and consistent) • T0 plasma tube: […] X No. of total sample tubes+50 μL extra for T0 extraction. • (Note: equivalent proportion of solvent mixture as added in drug test tubes will be added before T0 extraction!)
Take out the pre-warmed plasma tubes from the 37° C. incubator. Add 3 μL of 100 μM stock solution (or, equivalent proportion of the solvent mixture to T0 plasma tube for T0 extraction) to each corresponding sample tubes in order, vortex gently (3×) to mix. Finish the sample tubes orderly and quickly, then transfer them to the Thermomixer (program & 37° C. ready), and start the Thermomixer. Record starting time on paper & start the timer for 15 min for the 1st sampling time point.
Now add the equivalent amount of solvent mixture to the T0 plasma tube, mix, and transfer 50 μL plasma to each of the T0 extracting tubes, vortex 20s and placed on ice. Vortex 10s again before centrifuging the samples at 14,000 rpm for 5 min at 4° C.
Repeat the above procedures at each time point (15, 30, 60, 120, 240 min) by transferring 50 μL plasma samples from the testing tubes to the corresponding extracting tubes, in the same order and time scheme as in the addition of the drug to the plasma samples at the beginning of the study.
• Kel=Slope of LN % PCR vs time
Half life (t½)=0.693/Kel (1)

[2] = target: human recombinant MAGL (Homo sapiens (Human), UniProt Q99685); assay: In vitro inhibition of MAGL activity (inhibitor screening kit, 4-nitrophenylacetate); assay type: biochemical; details: for IC50: human recombinant MAGL
How it was run: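 Colorimetric kit assay: recombinant human MAGL hydrolyses 4-nitrophenylacetate to 4-nitrophenol, read by absorbance at 405-412 nm. Inhibition given as percentage of signal in treated versus untreated MAGL control.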

[3] = target: human recombinant FAAH (Homo sapiens (Human), UniProt O00519); assay: In vitro inhibition of FAAH activity (fluorescent inhibitor screening kit, AMC arachidonoyl amide); assay type: biochemical
How it was run: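 Fluorogenic kit assay: AMC arachidonoyl amide is cleaved by human recombinant FAAH, read at 340-360/450-465 nm. Percent inhibition versus non-treated control; IC50 values derived from multiple compound concentrations where tested.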

[4] = FAAH, values as listed in Table 5, read-out: IC50
[5] = human recombinant FAAH, read-out: Inhibition on FAAH activity (IC50)

Chain of human recombinant MAGL (Q99685 whole entry): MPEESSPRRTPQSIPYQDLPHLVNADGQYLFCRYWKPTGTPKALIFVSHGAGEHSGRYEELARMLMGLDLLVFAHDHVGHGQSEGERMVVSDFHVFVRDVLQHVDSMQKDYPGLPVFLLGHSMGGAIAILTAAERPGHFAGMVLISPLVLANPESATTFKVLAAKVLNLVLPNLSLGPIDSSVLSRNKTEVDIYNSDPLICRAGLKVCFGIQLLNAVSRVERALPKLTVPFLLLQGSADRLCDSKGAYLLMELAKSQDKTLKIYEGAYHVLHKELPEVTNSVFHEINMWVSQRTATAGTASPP
Chain of human recombinant FAAH (O00519 whole entry): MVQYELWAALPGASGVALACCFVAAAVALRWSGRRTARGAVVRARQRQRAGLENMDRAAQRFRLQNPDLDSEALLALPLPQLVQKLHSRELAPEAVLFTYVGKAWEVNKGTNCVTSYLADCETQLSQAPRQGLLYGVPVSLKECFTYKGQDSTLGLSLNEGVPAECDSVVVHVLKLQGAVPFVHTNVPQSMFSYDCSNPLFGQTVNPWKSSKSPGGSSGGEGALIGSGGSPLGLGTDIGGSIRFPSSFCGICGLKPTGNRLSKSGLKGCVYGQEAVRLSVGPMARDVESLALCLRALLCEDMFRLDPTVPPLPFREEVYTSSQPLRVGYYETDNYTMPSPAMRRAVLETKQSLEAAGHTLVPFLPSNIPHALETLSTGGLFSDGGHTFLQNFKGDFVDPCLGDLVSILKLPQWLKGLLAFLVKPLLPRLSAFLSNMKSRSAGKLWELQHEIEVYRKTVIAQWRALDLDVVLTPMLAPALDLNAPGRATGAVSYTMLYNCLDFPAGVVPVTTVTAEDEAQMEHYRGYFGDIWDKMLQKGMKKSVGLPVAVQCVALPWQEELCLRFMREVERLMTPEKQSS

SMILES | half-life at 1 μM [1] | IC50 [2] | IC50 [3, 4] | IC50 [3, 5] | plasma stability and/or aqueous solubility compared to reference compound URB597 ([1]; see Table 5) | fold-selectivity over MAGL (selectivity index) ([2]; FAAH over MAGL)
O=C(NC1CCCCCC1)Oc1cccc(-c2cncc(-c3cccs3)c2)c1 [Example 64, 3-(5-(thiophen-2-yl)pyridin-3-yl)phenyl cycloheptylcarbamate] | 24 min | > 10000 nM | 39.1 nM | 39.1 nM |  | 
O=C(NC1CCCCCC1)Oc1ccc(F)c(-c2cncc(-c3nnco3)c2)c1 [Example 194, 3-(5-(1,3,4-oxadiazol-2-yl)pyridin-3-yl)-4-fluorophenyl cycloheptylcarbamate] | 41 min | > 10000 nM | 49.1 nM | 49.1 nM | improved plasma stability, improved aqueous solubility, or improved plasma stability and aqueous solubility | 
COc1ccc(OC(=O)NC2CCCCC2)cc1-c1cncc(-c2ncn[nH]2)c1 [Example 236, 3-(5-(1H-1,2,4-triazol-5-yl)pyridin-3-yl)-4-methoxyphenyl cyclohexyl carbamate] |  | > 10000 nM |  | 100 to 1000 nM |  | 
COc1ccc(OC(=O)NC2CCCCCC2)cc1-c1cncc(-c2ncn[nH]2)c1 [Example 237, 3-(5-(1H-1,2,4-triazol-5-yl)pyridin-3-yl)-4-methoxyphenyl cycloheptylcarbamate] |  | > 10000 nM |  | 100 to 1000 nM |  | 
CCCCCCCCNC(=O)Oc1cccc(-c2cncc(-c3nnn[nH]3)c2)c1 [Example 238, 3-(5-(1H-tetrazol-5-yl)pyridin-3-yl)phenyl octylcarbamate] |  | ~10000 nM |  | 10 to 100 nM |  | 
O=C(NCC1CCCCC1)Oc1cccc(-c2cncc(-c3nnn[nH]3)c2)c1 [Example 239, 3-(5-(1H-tetrazol-5-yl)pyridin-3-yl)phenyl (cyclohexylmethyl)carbamate] |  | > 10000 nM |  | > 1000 nM |  | 
O=C(NCc1ccccc1)Oc1cccc(-c2cncc(-c3nnn[nH]3)c2)c1 [Example 240, 3-(5-(1H-tetrazol-5-yl)pyridin-3-yl)phenyl benzylcarbamate] |  | > 10000 nM |  | > 1000 nM |  | 
O=C(NC1CCCC1)Oc1cccc(-c2cncc(-c3nnn[nH]3)c2)c1 [Example 241, 3-(5-(1H-tetrazol-5-yl)pyridin-3-yl)phenyl cyclopentylcarbamate] |  | > 10000 nM |  | > 1000 nM |  | 
O=C(NC1CCCCC1)Oc1cccc(-c2cncc(-c3nnn[nH]3)c2)c1 [Example 242, 3-(5-(1H-tetrazol-5-yl)pyridin-3-yl)phenyl cyclohexylcarbamate] |  | > 10000 nM |  | > 1000 nM |  | 
O=C(NC1CCCCCC1)Oc1cccc(-c2cncc(-c3nnn[nH]3)c2)c1 [Example 243, 3-(5-(1H-tetrazol-5-yl)pyridin-3-yl)phenyl cycloheptylcarbamate] |  | > 10000 nM |  | > 1000 nM |  | 
CCCCCCCCNC(=O)Oc1ccc(O)c(-c2cncc(-c3nnn[nH]3)c2)c1 [Example 244, 3-(5-(1H-tetrazol-5-yl)pyridin-3-yl)-4-hydroxyphenyl octylcarbamate] |  | > 10000 nM |  | 100 to 1000 nM |  | 
O=C(NCC1CCCCC1)Oc1ccc(O)c(-c2cncc(-c3nnn[nH]3)c2)c1 [Example 245, 3-(5-(1H-tetrazol-5-yl)pyridin-3-yl)-4-hydroxyphenyl (cyclohexylmethyl)carbamate] |  | > 10000 nM |  | > 1000 nM |  | 
O=C(NCc1ccccc1)Oc1ccc(O)c(-c2cncc(-c3nnn[nH]3)c2)c1 [Example 246, 3-(5-(1H-tetrazol-5-yl)pyridin-3-yl)-4-hydroxyphenyl benzylcarbamate] |  | > 10000 nM |  | > 1000 nM |  | 
O=C(NC1CCCC1)Oc1ccc(O)c(-c2cncc(-c3nnn[nH]3)c2)c1 [Example 247, 3-(5-(1H-tetrazol-5-yl)pyridin-3-yl)-4-hydroxyphenyl cyclopentylcarbamate] |  | > 10000 nM |  | > 1000 nM |  | 
O=C(NC1CCCCC1)Oc1ccc(O)c(-c2cncc(-c3nnn[nH]3)c2)c1 [Example 248, 3-(5-(1H-tetrazol-5-yl)pyridin-3-yl)-4-hydroxyphenyl cyclohexylcarbamate] |  | > 10000 nM |  | > 1000 nM |  | 
O=C(NC1CCCCCC1)Oc1ccc(O)c(-c2cncc(-c3nnn[nH]3)c2)c1 [Example 249, 3-(5-(1H-tetrazol-5-yl)pyridin-3-yl)-4-hydroxyphenyl cycloheptylcarbamate] |  | > 10000 nM |  | > 1000 nM |  | 
CCCCCCCCNC(=O)Oc1ccc(OC)c(-c2cncc(-c3nnn[nH]3)c2)c1 [Example 250, 3-(5-(1H-tetrazol-5-yl)pyridin-3-yl)-4-methoxyphenyl octylcarbamate] |  | ~10000 nM |  | 100 to 1000 nM |  | 

SMILES | half-life at 1 μM [1] | IC50 [2] | IC50 [3, 4] | IC50 [3, 5] | plasma stability and/or aqueous solubility compared to reference compound URB597 ([1]; see Table 5) | fold-selectivity over MAGL (selectivity index) ([2]; FAAH over MAGL)
COc1ccc(OC(=O)NCC2CCCCC2)cc1-c1cncc(-c2nnn[nH]2)c1 [Example 251, 3-(5-(1H-tetrazol-5-yl)pyridin-3-yl)-4-methoxyphenyl (cyclohexylmethyl)carbamate] |  | > 10000 nM |  | > 1000 nM |  | 
COc1ccc(OC(=O)NCc2ccccc2)cc1-c1cncc(-c2nnn[nH]2)c1 [Example 252, 3-(5-(1H-tetrazol-5-yl)pyridin-3-yl)-4-methoxyphenyl benzylcarbamate] |  | > 10000 nM |  | > 1000 nM |  | 
COc1ccc(OC(=O)NC2CCCC2)cc1-c1cncc(-c2nnn[nH]2)c1 [Example 253, 3-(5-(1H-tetrazol-5-yl)pyridin-3-yl)-4-methoxyphenyl cyclopentylcarbamate] |  | > 10000 nM |  | > 1000 nM |  | 
COc1ccc(OC(=O)NC2CCCCC2)cc1-c1cncc(-c2nnn[nH]2)c1 [Example 254, 3-(5-(1H-tetrazol-5-yl)pyridin-3-yl)-4-methoxyphenyl cyclohexylcarbamate] |  | > 10000 nM |  | > 1000 nM |  | 
COc1ccc(OC(=O)NC2CCCCCC2)cc1-c1cncc(-c2nnn[nH]2)c1 [Example 255, 3-(5-(1H-tetrazol-5-yl)pyridin-3-yl)-4-methoxyphenyl cycloheptylcarbamate] |  | > 10000 nM |  | > 1000 nM |  | 
O=C(NCC1CCCCC1)Oc1cccc(-c2cc(-c3nnco3)ccn2)c1 [Example 257, 3-(4-(1,3,4-oxadiazol-2-yl)pyridin-2-yl)phenyl (cyclohexylmethyl)carbamate] |  | > 10000 nM |  | 10 to 100 nM |  | 
O=C(NCc1ccccc1)Oc1cccc(-c2cc(-c3nnco3)ccn2)c1 [Example 258, 3-(4-(1,3,4-oxadiazol-2-yl)pyridin-2-yl)phenyl benzylcarbamate] |  | > 10000 nM |  | 100 to 1000 nM |  | 
O=C(NC1CCCC1)Oc1cccc(-c2cc(-c3nnco3)ccn2)c1 [Example 259, 3-(4-(1,3,4-oxadiazol-2-yl)pyridin-2-yl)phenyl cyclopentylcarbamate] |  | > 10000 nM |  | 100 to 1000 nM |  | 
CC1CCC(NC(=O)Oc2cccc(-c3cc(-c4nnco4)ccn3)c2)CC1 (stereo not drawn) [Example 261, 3-(4-(1,3,4-oxadiazol-2-yl)pyridin-2-yl)phenyl (4-methylcyclohexyl)carbamate] |  | > 1000 nM |  | 100 to 1000 nM |  | 
O=C(NC1CCCCCC1)Oc1cccc(-c2cc(-c3nnco3)ccn2)c1 [Example 262, 3-(4-(1,3,4-oxadiazol-2-yl)pyridin-2-yl)phenyl cycloheptylcarbamate] |  | > 1000 nM |  | 10 to 100 nM |  | 
CCCCCCCCNC(=O)Oc1cccc(-c2cncc(-c3nnco3)n2)c1 [Example 263, 3-(6-(1,3,4-oxadiazol-2-yl)pyrazin-2-yl)phenyl octylcarbamate] |  | 1000 to 10000 nM |  | 1 to 10 nM |  | 
O=C(NCC1CCCCC1)Oc1cccc(-c2cncc(-c3nnco3)n2)c1 [Example 264, 3-(6-(1,3,4-oxadiazol-2-yl)pyrazin-2-yl)phenyl (cyclohexylmethyl)carbamate] |  | ~10000 nM |  | 10 to 100 nM |  | 
O=C(NCc1ccccc1)Oc1cccc(-c2cncc(-c3nnco3)n2)c1 [Example 265, 3-(6-(1,3,4-oxadiazol-2-yl)pyrazin-2-yl)phenyl benzylcarbamate] |  | > 10000 nM |  | 100 to 1000 nM |  | 
O=C(NC1CCCC1)Oc1cccc(-c2cncc(-c3nnco3)n2)c1 [Example 266, 3-(6-(1,3,4-oxadiazol-2-yl)pyrazin-2-yl)phenyl cyclopentylcarbamate] |  | 1000 to 10000 nM |  | 10 to 100 nM |  | 
O=C(NC1CCCCCC1)Oc1cccc(-c2cncc(-c3nnco3)n2)c1 [Example 268, 3-(6-(1,3,4-oxadiazol-2-yl)pyrazin-2-yl)phenyl cycloheptylcarbamate] |  | 1000 to 10000 nM |  | 10 to 100 nM |  | 
O=C(Nc1cnccc1Cl)N1CCN(Cc2ccc3c(c2)OC(F)(F)O3)CC1 [JNJ-42165279, reference compound] |  | > 50000 nM |  | 106 nM |  | 473 times
